Results published in US20260034111A1, “NOVEL HETEROCYCLES AS sPLA2-X INHIBITORS” (Cayman Chemical Company Incorporated, priority 2022, published 2026).
Counter-ions that a name gives are not always drawn. Like-named read-outs stand apart in the source and are kept apart here.

Assays:
Assay type in all cases: biochemical
Settings in all cases: class symbols
[1] = molecular target: T1, recombinant human sPLA2-V enzyme (Homo sapiens, UniProt P39877); assay: sPLA2-V enzyme inhibition assay (thio-PC substrate, DTNB detection, absorbance 410 nm)
T1 construct: made in house; host or cells: E. coli
T1 sequence (P39877 21-138): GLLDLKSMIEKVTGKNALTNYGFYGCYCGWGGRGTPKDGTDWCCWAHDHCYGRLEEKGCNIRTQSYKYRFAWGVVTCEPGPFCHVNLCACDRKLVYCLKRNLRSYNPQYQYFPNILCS
Text: (§1) Screening Compounds for Inhibition of sPLA2-X, sPLA2-V, and sPLA2-IIA Enzyme Activity
(§2) These sPLA2 enzymes hydrolyze the sn-2 acyl chains of glycerophospholipids, resulting in the release of a free fatty acid and a lysophospholipid. In the case of the thio-PC substrate, this enzymatic hydrolysis results in a free sulfhydryl group remaining on the lysophospholipid. This free sulfhydryl reacts with DTNB to produce the chromogenic product 5-nitro-2-thiobenzoic acid (TNB) which can be quantitated by absorbance at 410 nm. The amount of TNB produced reflects the hydrolytic activity of the enzyme.
(§3) The recombinant human sPLA2 groups IIA, V, and X enzymes were expressed in E. coli and purified to >90% purity by standard biochemical methods.
(§4) Procedure of Enzyme Inhibition for sPLA2-X • 1. […] Dilute the test compounds in 100% DMSO by half-log steps in a 96-well dilution plate using columns 1-11 (one compound per row). Column 12 contains DMSO alone with no compound. • 3. Prepare a 3.5 mM thio-PC substrate solution by drying down 7.2 mg of stock thio-PC in ethanol under a gentle stream of N2 gas. When dry, add 4 mL assay buffer (25 mM Tris, pH7.4; 100 mM KCl; 10 mM CaCl2; 0.1% Triton X-100) and warm in a 37° C. water bath for 20 minutes with intermittent vortexing. • 4. Prepare an “enzyme containing” reaction mix with the following components: 20.4 mL assay buffer; 2 mL DTNB (20 mM in 800 mM Tris, pH8.0); and 11.8 mg recombinant human sPLA2-X enzyme (>95% pure) diluted to a total of 0.8 mL assay buffer. • 5. Prepare a “no enzyme” reaction mix with the following components: 477 μL assay buffer and 45 μL DTNB. • 6. Dispense 58 μL “no enzyme” reaction mix into each of 8 wells (columns 23 and 24, rows M-P). • 7. Dispense 58 μL “enzyme containing” reaction mix into all remaining wells on the plate. • 8. From the 96-well compound dilution plate, add 2 μL from each well for each compound to each of 4 wells with “enzyme containing” reaction mix. Columns 23 and 24 on the assay plate will contain only DMSO (vehicle control). […] After compound addition, mix the contents of each well to ensure that the DMSO is evenly distributed in the well. • 9. Cover the plate and incubate in the dark at room temperature for 15 minutes. • 10. Add 10 μL of thio-PC substrate to all wells. The final concentration of thio-PC in the reactions is 0.5 mM. • 11. Cover the plate and incubate in the dark at room temperature for 30 minutes. • 12. Measure the absorbance of all wells at 410 nm. • 13. Determine the mean absorbance of the “no enzyme” wells. Subtract this value from the absorbance values determined for all other wells (these are now background corrected data). • 14. […] Procedure of Enzyme Inhibition for sPLA2-V • 1. […] Dilute the test compounds in 100% DMSO by half-log steps in a 96-well dilution plate using columns 1-11. Column 12 contains DMSO alone with no compound. • 3. Prepare a 3.5 mM thio-PC substrate solution by drying down 7.2 mg of stock thio-PC in ethanol under a gentle stream of N2 gas. When dry, add 4 mL assay buffer (25 mM Tris, pH7.4; 100 mM KCl; 10 mM CaCl2; 0.1% Triton X-100) and warm in a 37° C. water bath for 20 minutes with intermittent vortexing. • 4. Prepare an “enzyme containing” reaction mix with the following components: 20.4 mL assay buffer; 2 mL DTNB (20 mM in 800 mM Tris, pH8.0); and 12 mg recombinant human sPLA2-V enzyme (>95% pure) diluted to a total of 0.8 mL assay buffer. • 5. Prepare a “no enzyme” reaction mix with the following components: 477 μL assay buffer and […]. • 6. Dispense 58 μL “no enzyme” reaction mix into each of 8 wells (columns 23 and 24, rows M-P). • 7. Dispense 58 μL “enzyme containing” reaction mix into all remaining wells on the plate. • 8. From the 96-well compound dilution plate, add 2 μL from each well for each compound to each of 4 wells with “enzyme containing” reaction mix. Columns 23 and 24 on the assay plate will contain only DMSO (vehicle control).

sPLA2-X protein = molecular target: T2, sPLA2-X protein (Homo sapiens, UniProt O15496); assay: sPLA2-X enzyme inhibition assay (thio-PC substrate, DTNB detection, absorbance 410 nm); set-up: made in house; host or cells: E. coli
T2 sequence (O15496 43-165): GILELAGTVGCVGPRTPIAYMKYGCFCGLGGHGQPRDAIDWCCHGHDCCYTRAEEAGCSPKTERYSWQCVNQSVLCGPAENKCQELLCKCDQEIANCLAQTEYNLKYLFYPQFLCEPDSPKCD
Text: as §1, §2, §3, §4

[2] = molecular target: T3, recombinant human sPLA2-IIA enzyme (Homo sapiens, UniProt P14555); assay: sPLA2-IIA enzyme inhibition assay (thio-PC substrate, DTNB detection, absorbance 410 nm)
T3 construct: made in house; host or cells: E. coli
T3 sequence (P14555 21-144): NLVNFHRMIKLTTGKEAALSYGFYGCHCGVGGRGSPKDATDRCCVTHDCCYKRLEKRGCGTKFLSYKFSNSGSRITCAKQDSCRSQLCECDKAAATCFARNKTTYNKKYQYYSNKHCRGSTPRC
Text: as §1, §2, §3, §4

[3] = read-out: sPLA2 Type V Inhibition (IC50; nM)
[4] = read-out: sPLA2 Type X Inhibition (IC50; nM)
[5] = read-out: sPLA2 Type IIa Inhibition (IC50; nM)
[6] = sPLA2 Type X Inhibition (IC50; nM)

SMILES	IC50 [1, 3]	IC50 (sPLA2-X protein; [4])	IC50 [2, 5]	IC50 ([1]; sPLA2 Type V Inhibition (IC50; nM))	IC50 (sPLA2-X protein; [6])	IC50 ([2]; sPLA2 Type IIa Inhibition (IC50; nM))
NC(=O)c1cc2ccc(OC(F)(F)F)cc2n1-c1cccc(N2CC[C@@H]2C(=O)O)n1 [Compound 70, (R)-1-(6-(2-carbamoyl-6-(trifluoromethoxy)-1H-indol-1-yl)pyridin-2-yl)azetidine-2-carboxylic acid]	500 to 1500 nM	< 20 nM	> 1000 nM			
CC(C)(C)OC(=O)N1CC(CC(=O)O)c2cc(-n3c(C(N)=O)cc4ccc(OC(F)(F)F)cc43)ccc21 (stereo not drawn) [Compound 11, 2-(1-(tert-butoxycarbonyl)-5-(2-carbamoyl-6-(trifluoromethoxy)-1H-indol-1-yl)indolin-3-yl)acetic acid]	> 5000 nM	50 to 200 nM	> 1000 nM			
NC(=O)c1cc2ccc(OC(F)(F)F)cc2n1-c1cccc([C@@H](N)CC(=O)O)c1 [Compound 40, (S)-3-amino-3-(3-(2-carbamoyl-6-(trifluoromethoxy)-1H-indol-1-yl)phenyl)propanoic acid]	> 5000 nM	> 200 nM	> 1000 nM			
NC(=O)c1cc2ccc(OC(F)(F)F)cc2n1-c1cccc(C2(N)CCC2)n1 [Compound 49, 1-(6-(1-aminocyclobutyl)pyridin-2-yl)-6-(trifluoromethoxy)-1H-indole-2-carboxamide TFA salt]	> 5000 nM	> 200 nM	> 1000 nM			
NC(=O)c1nc2ccc(OC(F)(F)F)cc2n1-c1cccc(C2CC2C(=O)O)n1 (stereo not drawn) [Compound 58, trans-2-(6-(2-carbamoyl-6-(trifluoromethoxy)-1H-benzo[d]imidazol-1-yl)pyridin-2-yl)cyclopropane-1-carboxylic acid]	> 5000 nM	> 200 nM	> 1000 nM			
NC(=O)c1[se]c2ccc(OC(F)(F)F)cc2c1-c1cccc(C2CC2C(=O)O)n1 (stereo not drawn) [Compound 57, trans-2-(6-(2-carbamoyl-5-(trifluoromethoxy)benzo[b]selenophen-3-yl)pyridin-2-yl)cyclopropane-1-carboxylic acid]				> 5000 nM	50 to 200 nM	> 1000 nM
NC(=O)c1cc2ccc(OC(F)(F)F)cc2n1-c1cccc(C2CC2C(=O)O)c1 (single isomer, unassigned) [Compound 15a, trans-(+)-2-(3-(2-carbamoyl-6-(trifluoromethoxy)-1H-indol-1-yl)phenyl)cyclopropane-1-carboxylic acid]	> 5000 nM	> 200 nM	> 1000 nM			
N[C@@H](CC(=O)O)c1cccc(-n2c(C(=O)O)cc3ccc(OC(F)(F)F)cc32)c1 [Compound 41, (S)-1-(3-(1-amino-2-carboxyethyl)phenyl)-6-(trifluoromethoxy)-1H-indole-2-carboxylic acid]	> 5000 nM	> 200 nM	> 1000 nM			
CC(C)(CC(=O)O)c1cccc(-n2c(C(N)=O)cc3ccc(OC(F)(F)F)cc32)c1 [Compound 22, 3-(3-(2-carbamoyl-6-(trifluoromethoxy)-1H-indol-1-yl)phenyl)-3-methylbutanoic acid]	1500 to 5000 nM	< 20 nM	> 1000 nM			
NC(=O)c1sc2ccc(OC(F)(F)F)cc2c1-c1cccc(C2(CC(=O)O)CC2)c1 [Compound 36, 2-(1-(3-(2-carbamoyl-5-(trifluoromethoxy)benzo[b]thiophen-3-yl)phenyl)cyclopropyl)acetic acid]	500 to 1500 nM	< 20 nM	> 1000 nM			
N[C@H](CC(=O)O)c1cccc(-n2c(C(=O)O)cc3ccc(OC(F)(F)F)cc32)c1 [Compound 43, (R)-1-(3-(1-amino-2-carboxyethyl)phenyl)-6-(trifluoromethoxy)-1H-indole-2-carboxylic acid]	> 5000 nM	> 200 nM	> 1000 nM			
C[C@@]1(c2cccc(-n3c(C(N)=O)cc4ccc(OC(F)(F)F)cc43)c2)C[C@H]1C(=O)O (relative stereo) [Compound 38b, trans-2-(3-(2-carbamoyl-6-(trifluoromethoxy)-1H-indol-1-yl)phenyl)-2-methylcyclopropane-1-carboxylic acid]	> 5000 nM	20 to 50 nM	> 1000 nM			
C/C(=C\C(=O)O)c1cccc(-n2c(C(N)=O)cc3ccc(OC(F)(F)F)cc32)n1 [Compound 6, (E)-3-(6-(2-carbamoyl-6-(trifluoromethoxy)-1H-indol-1-yl)pyridin-2-yl)but-2-enoic acid]	> 5000 nM	> 200 nM	> 1000 nM			
NC(=O)c1oc2ccccc2c1-c1cccc(CCC(=O)O)c1 [Compound 25, 3-(3-(2-carbamoylbenzofuran-3-yl)phenyl)propanoic acid]	> 5000 nM	> 200 nM	> 1000 nM			
NC(=O)c1[se]c2ccc(OC(F)(F)F)cc2c1-c1cccc(CCC(=O)O)c1 [Compound 29, 3-(3-(2-carbamoyl-5-(trifluoromethoxy)benzo[b]selenophen-3-yl)phenyl)propanoic acid]	1500 to 5000 nM		500 to 1000 nM		50 to 200 nM	
C[C@]1(c2cccc(-n3c(C(N)=O)cc4ccc(OC(F)(F)F)cc43)c2)C[C@H]1C(=O)O (relative stereo) [Compound 38a, cis-2-(3-(2-carbamoyl-6-(trifluoromethoxy)-1H-indol-1-yl)phenyl)-2-methylcyclopropane-1-carboxylic acid]	< 500 nM	< 20 nM	200 to 500 nM			
NC(=O)c1cc2ccc(OC(F)(F)F)cc2n1-c1cccc(CC2(C(=O)O)CC2)c1 [Compound 19, 1-(3-(2-carbamoyl-6-(trifluoromethoxy)-1H-indol-1-yl)benzyl)cyclopropane-1-carboxylic acid]	> 5000 nM	> 200 nM	> 1000 nM			
NC(=O)c1cc2ccc(OC(F)(F)F)cc2n1-c1cccc(N2CC(C(=O)O)C2)n1 [Compound 52, 1-(6-(2-carbamoyl-6-(trifluoromethoxy)-1H-indol-1-yl)pyridin-2-yl)azetidine-3-carboxylic acid]	1500 to 5000 nM	50 to 200 nM	> 1000 nM			
NC(=O)c1cc2ccc(OC(F)(F)F)cc2n1-c1cccc(C2CC2C(=O)O)c1 (single isomer, unassigned) [Compound 15b, trans-(−)-2-(3-(2-carbamoyl-6-(trifluoromethoxy)-1H-indol-1-yl)phenyl)cyclopropane-1-carboxylic acid]	> 5000 nM	20 to 50 nM	> 1000 nM			
